Experiment in all cases: Microalgae-destroying effect by IC50 measurement (cell count)
Common to all, as to format: cell-based

In one assay the test system is Chattonella Marina. The note with it: 24 h, cultured 1 day, read-out: IC50 Chattonella Marina. The procedure:
(§1) The IC50 value was obtained according to Equation 1: […]
(§2) First, the above-listed microalgae were cultured in a culture flask at a temperature of about 20° C. under light conditions, and a medium used was Guillard's f/2 medium which is commonly used in the art (Guillard R R L and Keller M D. Culturing dinoflagellates. In: Spector (Ed.), Dinoflagellates. New York: Academic Press; 1984, 391442).
(§3) After the cultured microalgae were transferred onto a 24-well plate, Chattonella Marina, Heterosigma circularisquama, Cochlodinium Polykrikoides, and Heterosigma akashiwo, which were in an exponential growth phase, were treated with Compounds 1 to 3, 5 to 10, 12, 13, 17 to 43, and 45 to 47 synthesized in Examples 1 to 3, 5 to 10, 12, 13, 17 to 43, and 45 to 47 at concentrations of 0.1 uM, 0.2 uM, 0.5 uM, 1 uM, 2 uM, and 5 uM, and then cultured for 1 day.
(§4) Control groups were not treated with any of the compounds synthesized in the above-identified examples. After incubation, the number of cells of each alga was counted using a Burker-Tukr hemocytometer, and IC50 values were calculated according to Equation 1 using SigmaPlot Version 11.2 software (Standard curve: the four-parameter logistic curve).

In assay [1] the test system is Heterocapsa Circularisquama. The conditions noted are these: 24 h, cultured 1 day. The protocol:
as §1, §2, §3, §4

The next assay has as its system Heterosigma Akashiwo. The note with it: 24 h, cultured 1 day, read-out: IC50 Heterosigma Akashiwo. The protocol:
as §1, §2, §3, §4

For assay [2], the system named is Cochlodinium Polykrikoides. The note with it: Margalefidinium polykrikoides, 24 h, 0.1-5 uM, cultured 1 day, read-out: IC50 Cochlodinium Polykrikoides. The procedure:
(§5) The IC50 value was obtained according to Equation 1:
(§6) The algicidal activity of each compound was calculated using Equation 2: Algicidal activity (%)=(1−Tt/Ct)×100 <Equation 2>
(§7) In Equation 2, T (treatment group) and C (control group) represent algae densities in cell counts when each compound was inoculated and was not inoculated, respectively, and t represents the number of days which had passed after the inoculation.
as §2, §3, §4

The next assay relates to Microcystis aeruginosa. The note with it: read-out: IC50 Microcystis aeruginosa. The procedure: as §5, §6, §7, §2
Microcystis aeruginosa was treated with Compounds 1 to 3, 5 to 10, 12, 13, 17 to 43, and 45 to 51 synthesized in Examples 1 to 3, 5 to 10, 12, 13, 17 to 43, and 45 to 51 at concentrations of 0.1 uM, 0.2 uM, 0.5 uM, 1 uM, 2 uM, 5 uM, 10 uM, 15 uM, and 20 uM and then cultured for 5 days.
as §4

Setting [3] is: Table 1, 3,4-dichlorobenzylamines, 0.1-5 uM.
[4] abbreviates: Table 1, 3,4-dichlorobenzylamines, 0.1-5 uM, read-out: IC50 Heterocapsa Circularisquama.
Setting [5] is: Table 1, 3,4-dichlorobenzylamines.
Setting [6] is: Microcystis aeruginosa, 120 h, Table 1, 3,4-dichlorobenzylamines, 0.1-20 uM, cultured 5 days.
[7] abbreviates: Table 2, 0.1-5 uM, read-out: IC50 Heterocapsa Circulariaquama.

Read-outs that look alike come from different tables or passages of the source.

As usually defined, the IC50 is the concentration that inhibits the measured activity by half. Regarding `CCN(CC)CCNCc1ccc(Cl)c(Cl)c1` [Compound 1, N′-(3,4-dichloro-benzyl)-N,N-diethyl-ethane-1,2-diamine], the IC50 with Chattonella Marina (setting [3]) is 2.9 µM; in assay [1] (setting [4]), 1.76 µM; in the assay with Heterosigma Akashiwo (setting [3]), 1.58 µM; in assay [2] (setting [5]), 2.3 µM; in the assay with Microcystis aeruginosa (setting [6]), 4.89 µM.
For the compound `CN(C)CCNCc1ccc(Cl)c(Cl)c1` [Compound 3, N′-(3,4-Dichloro-benzyl)-N,N-dimethyl-ethane-1,2-diamine], the IC50 with Chattonella Marina (setting [3]) is more than 5 µM; in assay [1] (setting [4]), 3.1 µM; in the assay with Heterosigma Akashiwo (setting [3]), 2.25 µM; in assay [2] (setting [5]) it was more than 5 µM; in the assay with Microcystis aeruginosa (setting [6]), 8.41 µM.
As for `COCCNCc1ccc(Cl)c(Cl)c1` [Compound 5, (3,4-dichloro-benzyl)-(2-methoxy-ethyl)-amine], the IC50 in the assay with Chattonella Marina (setting [3]) was more than 5 µM; in assay [1] (setting [4]), more than 5 µM; with Heterosigma Akashiwo (setting [3]), 1.3 µM; in assay [2] (setting [5]) it was more than 5 µM; with Microcystis aeruginosa (setting [6]), 14.2 µM.
In the case of `COC(CCCNCc1ccc(Cl)c(Cl)c1)OC` [Compound 6, (3,4-Dichloro-benzyl)-(4,4-dimethoxy-butyl)-amine], the IC50 with Chattonella Marina (setting [3]) is more than 5 µM; in assay [1] (setting [4]) it was 4.8 µM; in the assay with Heterosigma Akashiwo (setting [3]), 1.3 µM; in assay [2] (setting [5]) it was 4.42 µM; in the assay with Microcystis aeruginosa (setting [6]), 8.64 µM.
Regarding `CC(C)CCNCc1ccc(Cl)c(Cl)c1` [Compound 7, (3,4-Dichloro-benzyl)-(3-methyl-butyl)-amine], the IC50 in the assay with Chattonella Marina (setting [3]) came out at 2 µM; in assay [1] (setting [4]) it was 1.5 µM; with Heterosigma Akashiwo (setting [3]), 0.28 µM; in assay [2] (setting [5]) it was 1.53 µM; with Microcystis aeruginosa (setting [6]) it was 11.6 µM.
Regarding `CN(C)CCCNCc1ccc(Cl)c(Cl)c1` [Compound 8, N′-(3,4-Dichloro-benzyl)-N,N-dimethyl-propane-1,3-diamine], the IC50 in the assay with Chattonella Marina (setting [3]) is 0.81 µM; in assay [1] (setting [4]), 3.3 µM; with Heterosigma Akashiwo (setting [3]), 1.26 µM; in assay [2] (setting [5]) it was 0.29 µM; in the assay with Microcystis aeruginosa (setting [6]), 0.09 µM.
For the compound `CCN(CC)CCNC(=O)c1ccc(Cl)c(Cl)c1` [Compound 9, 3,4-Dichloro-N-(2-diethylamino-ethyl)-benzamide], the IC50 in the assay with Chattonella Marina (Table 2, 0.1-5 uM) is more than 5 µM; in assay [1] (setting [7]), 1.97 µM; with Heterosigma Akashiwo (Table 2, 0.1-5 uM), 1.85 µM; in assay [2] (Table 2), 4.55 µM; with Microcystis aeruginosa (Microcystis aeruginosa, 120 h), 0.97 µM.
As for `CN(C)CCNC(=O)c1ccc(Cl)c(Cl)c1` [Compound 10, 3,4-Dichloro-N-(2-dimethylamino-ethyl)-benzamide], the IC50 was more than 5 µM in the assay on Chattonella Marina (Table 2, 0.1-5 uM); more than 5 µM in assay [1] (setting [7]); 1.63 µM in the assay with Heterosigma Akashiwo (Table 2, 0.1-5 uM); more than 5 µM in assay [2] (Table 2); more than 5 µM in the assay with Microcystis aeruginosa (Microcystis aeruginosa, 120 h).
On to `CN(C)CCCNC(=O)c1ccc(Cl)c(Cl)c1` [Compound 12, 3,4-Dichloro-N-(3-dimethylamino-propyl)-benzamide], for which the IC50 in the assay with Chattonella Marina (Table 2, 0.1-5 uM) was more than 5 µM; in assay [1] (setting [7]), more than 5 µM; in the assay on Heterosigma Akashiwo (Table 2, 0.1-5 uM) it was 1.55 µM; in assay [2] (Table 2), more than 5 µM; in the assay with Microcystis aeruginosa (Microcystis aeruginosa, 120 h) it was more than 5 µM.
`CCN(CC)CCCNC(=O)c1ccc(Cl)c(Cl)c1` [Compound 13, 3,4-Dichloro-N-(3-diethylamino-propyl)-benzamide]: the IC50 in the assay on Chattonella Marina (Table 2, 0.1-5 uM) is 4.5 µM; in assay [1] (setting [7]), 5 µM; in the assay on Heterosigma Akashiwo (Table 2, 0.1-5 uM), 2.27 µM; in assay [2] (Table 2) it was 2.22 µM; in the assay on Microcystis aeruginosa (Microcystis aeruginosa, 120 h) it was more than 5 µM.
As to `CCNCc1ccc(Cl)c(Cl)c1` [Compound 17, (3,4-Dichloro-benzyl)-ethyl-amine], the IC50 was more than 5 µM with Chattonella Marina (setting [3]); more than 5 µM in assay [1] (setting [4]); 1.18 µM with Heterosigma Akashiwo (setting [3]); more than 5 µM in assay [2] (setting [5]); more than 20 µM in the assay on Microcystis aeruginosa (setting [6]).
For the compound `CCCNCc1ccc(Cl)c(Cl)c1` [Compound 18, (3,4-Dichloro-benzyl)-propyl-amine], the IC50 was 2.67 µM in the assay on Chattonella Marina (setting [3]); more than 5 µM in assay [1] (setting [4]); 0.73 µM in the assay with Heterosigma Akashiwo (setting [3]); 4.38 µM in assay [2] (setting [5]); 11.8 µM in the assay on Microcystis aeruginosa (setting [6]).
For `Clc1ccc(CNc2ccccc2)cc1Cl` [Compound 19, (3,4-Dichloro-benzyl)-phenyl-amine] the same measures were 3.5 µM, more than 5 µM, 1.27 µM, 4.14 µM and 13.8 µM.
Regarding `CCCCNCc1ccc(Cl)c(Cl)c1` [Compound 20, Butyl-(3,4-dichloro-benzyl)-amine], the concentration for half-maximal inhibition (IC50) is 3.16 µM in the assay on Chattonella Marina (setting [3]); 2.86 µM in assay [1] (setting [4]); 0.44 µM in the assay on Heterosigma Akashiwo (setting [3]); 3.52 µM in assay [2] (setting [5]); more than 20 µM in the assay with Microcystis aeruginosa (setting [6]).
Turning to `Clc1ccc(NCc2ccc(Cl)c(Cl)c2)cc1` [Compound 21, (4-Chloro-phenyl)-(3,4-dichloro-benzyl)-amine], the IC50 was more than 5 µM in the assay with Chattonella Marina (setting [3]); 3.3 µM in assay [1] (setting [4]); 1.28 µM in the assay with Heterosigma Akashiwo (setting [3]); 3.6 µM in assay [2] (setting [5]); 9.66 µM in the assay with Microcystis aeruginosa (setting [6]).
Take `O=C(/C=C/c1ccc(Cl)c(Cl)c1)c1ccccc1` [Compound 22, 3-(3,4-Dichloro-phenyl)-1-phenyl-propenone]: the IC50 in the assay with Chattonella Marina (Table 2, 0.1-5 uM) was more than 5 µM; in assay [1] (setting [7]) it was more than 5 µM; in the assay with Heterosigma Akashiwo (Table 2, 0.1-5 uM) it was 3.67 µM; in assay [2] (Table 2), 1.66 µM; in the assay with Microcystis aeruginosa (Microcystis aeruginosa, 120 h) it was more than 5 µM.
As for `Fc1ccc(NCc2ccc(Cl)c(Cl)c2)cc1` [Compound 23, (3,4-Dichloro-benzyl)-(4-fluoro-phenyl)-amine], the IC50 in the assay on Chattonella Marina (setting [3]) was more than 5 µM; in assay [1] (setting [4]) it was more than 5 µM; with Heterosigma Akashiwo (setting [3]) it was 1.54 µM; in assay [2] (setting [5]), more than 5 µM; in the assay on Microcystis aeruginosa (setting [6]), 11.1 µM.
As for `O=C(/C=C/c1ccc(Cl)c(Cl)c1)c1ccc(Cl)cc1` [Compound 24, 1-(4-Chloro-phenyl)-3-(3,4-dichloro-phenyl)-propenone], the IC50 in the assay with Chattonella Marina (Table 2, 0.1-5 uM) was more than 5 µM; in assay [1] (setting [7]), more than 5 µM; in the assay on Heterosigma Akashiwo (Table 2, 0.1-5 uM) it was 1.7 µM; in assay [2] (Table 2), 1.33 µM; with Microcystis aeruginosa (Microcystis aeruginosa, 120 h), more than 5 µM.
Take `Clc1ccc(CNc2ccc(Br)cc2)cc1Cl` [Compound 25, (4-Bromo-phenyl)-(3,4-dichloro-benzyl)-amine]: the IC50 in the assay with Chattonella Marina (setting [3]) was more than 5 µM; in assay [1] (setting [4]) it was 2.83 µM; in the assay with Heterosigma Akashiwo (setting [3]), 1.19 µM; in assay [2] (setting [5]) it was 4 µM; in the assay on Microcystis aeruginosa (setting [6]), 11.1 µM.
As for `Clc1ccc(CNCc2ccccn2)cc1Cl` [Compound 26, (3,4-Dichloro-benzyl)-pyridin-2-ylmethyl-amine], the IC50 is 3.4 µM in the assay on Chattonella Marina (setting [3]); more than 5 µM in assay [1] (setting [4]); 0.72 µM with Heterosigma Akashiwo (setting [3]); more than 5 µM in assay [2] (setting [5]); more than 20 µM with Microcystis aeruginosa (setting [6]).
`Clc1ccc(CNCc2cccnc2)cc1Cl` [Compound 27, (3,4-Dichloro-benzyl)-pyridin-3-ylmethyl-amine]: the IC50 was more than 5 µM in the assay on Chattonella Marina (setting [3]); 3.55 µM in assay [1] (setting [4]); 0.79 µM in the assay on Heterosigma Akashiwo (setting [3]); 2 µM in assay [2] (setting [5]); more than 20 µM in the assay with Microcystis aeruginosa (setting [6]).
As for `Clc1ccc(CNCc2ccncc2)cc1Cl` [Compound 28, (3,4-Dichloro-benzyl)-pyridin-4-ylmethyl-amine], the IC50 was more than 5 µM in the assay on Chattonella Marina (setting [3]); more than 5 µM in assay [1] (setting [4]); 2.28 µM in the assay with Heterosigma Akashiwo (setting [3]); more than 5 µM in assay [2] (setting [5]); 15.2 µM in the assay on Microcystis aeruginosa (setting [6]).
For `CCN(CC)CCCNCc1ccc(Cl)c(Cl)c1` [Compound 48, N′-(3,4-Dichloro-benzyl)-N, N-diethyl-propane-1,3-diamine.2HCl], the IC50 in the assay on Microcystis aeruginosa (Table 1, 3,4-dichlorobenzylamines, 0.1-20 uM, cultured 5 days) amounted to 0.78 µM.
For `CCCCN(CCCC)CCNCc1ccc(Cl)c(Cl)c1` [Compound 49, N,N-Dibutyl-N′-(3,4-dichlorobenzyl)ethane-1,2-diamine], in the assay with Microcystis aeruginosa (setting [6]), the IC50 was found to be 0.88 µM.
Consider `CCCCN(CCCC)CCCNCc1ccc(Cl)c(Cl)c1` [Compound 50, N,N-Dibutyl-N′-(3,4-dichlorobenzyl)propane-1,3-diamine], for which the IC50 with Microcystis aeruginosa (setting [6]) was 0.54 µM.
The same measure, in the same setting: the value for `OCCN(CCO)CCCNCc1ccc(Cl)c(Cl)c1` [Compound 51, 2-[[3-(3,4-Dichlorobenzylamino)propyl]-(2-hydroxyethyl)amino]ethanol] was 2.27 µM.

Values taken from patent US11044909B2, “Composition for destruction of microalgae or sphaerocarpus” (CUREARTH, INC., priority 2015, dated 2021).
